Results on one compound are retold here after patent US20260216328A1, “DISRUPTABLE LINKER COMPOSITIONS, SWITCHABLE BISPECIFIC T CELL NANOENGAGER (SWITCH-BITE) COMPOSITIONS COMPRISING THE SAME, AND METHODS OF USE THEREOF” (The Trustees of the University of Pennsylvania, priority 2023, published 2026).

The test system of one data set is E0771-HER2 tumour. Description: E0771-HER2 tumour model with HER2 expression in the liver (on-target, off-tumour toxicity). The method, then:
FIG. 26A: mouse model with expression of human HER2 antigen in the liver was constructed using a piggyback transposon system delivered via lipid nanoparticles (LNPs) encapsulating two plasmids, pCMV-hyPBase and pPB7 TBG.human HER2.P2A.IRFP720, at day −30. At day 0, 10^6 E0771-HER2 tumour cells were injected s.c. into the right flank at day 0. […] FIGS. 26B-26D: mouse tumour growth curves, measurements of mouse body weight, and survival curves, respectively. n=8 mice. P value in FIG. 26D was determined using Log-rank (Mantel-Cox) test. […] FIGS. 26E-26K: measurements of markers for inflammation and toxicity including AST, ALT, TNF-α, IFN-γ, and IL-2 levels in mouse blood at different time points. n=3 mice. […] H&E staining was conducted to detect liver damage in different groups. Scale bar: […]. […] Blue: DAPI: Red, CD3^+ T cells. […] (n=5).
T cell infiltration in the liver was measured using flow (FIG. 27A). FIG. 27B: liver T cells in different treatment groups at day 13. […] P values were indicated in FIGS. 27B-27C, analyzed by two-tailed unpaired Student's t-test. n=3.
Recently, a mouse model was reported with stable human HER2 antigen expression in the mouse liver. […] Here, the construction of this mouse model was modified and two plasmids were delivered using a lipid nanoparticle (FIGS. 25A-25D). […] Next, a E0771-HER2 tumour model was constructed in mice with HER2 expression in the liver (FIG. 26A). […] The mice were then monitored for tumour growth, body weight, and survival (FIGS. 26B-26D).

The subject of data set [1] is E0771-HER2 cells and primary mouse T cells. Description: T cell-tumour cell engagement by confocal microscopy. Type of data set: cell-based. The method, then:
E0771-HER2 cells were labeled with CSFE-green and primary T cells were labelled with CFSE-red. The two cells were co-cultured and then treated with PBS or SiTE for 2 h. After that, the cells were observed by confocal imaging. T cell to T cell interactions and T cell to tumour cell interactions were counted manually by taking 10 images for quantification.
After synthesis and characterization of the AMD-responsive SiTE, the ability of SiTE to induce tumour cell-T cell engagement and tumour cell lysis was tested (FIG. 11A). E0771-HER2 cells were incubated with primary mouse T cells at a 1:1 ratio. Cells were then treated with SiTEs at varying concentrations for 4 h and observed under confocal laser scanning microscopy (CLSM) (FIG. 11B). In the untreated control group, cancer cells and T cells were randomly distributed with few T cells and cancer cells engaged. However, in groups receiving 5 ng/mL of SiTE, ~10% of T cells were engaged with tumour cells, and this rate increased to ~90% when cells were treated with 20 ng/mL of SiTE. […] To ensure the specificity of this engagement. […] Since the SiTE contains >20 Fabs, it is possible that it may induce T cell-to-T cell engagement and induce cytokine release. […] After 24 h, mouse blood was collected and the T cell crosslinking levels and IL-6 and TNF-α levels were measured. […]

`NC12CC3CC(CC(C3)C1)C2` [AMD, adamantan-1-amine]: the body weight entry in the data set with E0771-HER2 tumour (100 μg AMD on day 13 after SiTE) is “gradual increases in body weight and recovered to a normal range”. The “ALT and AST levels in blood” value in the data set on E0771-HER2 tumour (24 h after AMD infusion following SiTE) is listed as “returned to lower levels”. In the data set with E0771-HER2 tumour (AMD infusion after SiTE treatment), the “T cells in liver tissue” value is given as “greatly decreased the number of T cells in liver tissue”. In addition, the entries for the “separation of conjugated cells” value in data set [1] (100 ng/mL AMD after 20 ng/mL SiTE for 4 h) and in data set [1] (1 μg/mL AMD after 20 ng/mL SiTE for 4 h) were ~ 40% and about 100%, respectively.
